Experimental data from US20110251128A1, “THYMOSIN Beta4 PEPTIDES PROMOTE TISSUE REGENERATION” (The Board of Regents of the University of Texas System, priority 2010, published 2011).
Like-named read-outs stand apart in the source and are kept apart here.

Columns and labels:
adult infarcted pigs = test: Ischemia reperfusion (acute myocardial infarction) in pigs with retroinfusion of peptides; assay type: in vivo, pig
Experimental: Pigs: German pigs were purchased from the animal research department of the Ludwig-Maximilians-University (Oberschleissheim, Germany). Animal care and all experimental procedures were performed in accordance to the German and NIH animal legislation guidelines and were approved by the Bavarian Animal Care and Use Committee (AZ 55.2-1-54-2531-26/09). All animal experiments were conducted at the Walter Brendel Centre of Experimental Medicine, University of Munich.
Ischemia reperfusion experiments: Pigs (n=5/experimental group) were anesthetized and instrumented as described previously (Hinkel et al., 2008). Briefly, a balloon was placed in the left anterior descending artery (LAD) distal to the bifurcation of the first diagonal branch and inflated for 60 min. Correct localization of the coronary occlusion and patency of the first diagonal branch were ensured by injection fluoroscopy. Regional application of TB4 peptides or saline solution was performed via selective pressure regulated retroinfusion for 10 min into the anterior interventricular vein (AIV) draining the LAD-perfused myocardium (Kupatt et al., 2005).
Global myocardial function: At day 0 before ischemia induction and after 24 h of reperfusion myocardial function was obtained via Millar pressure tip catheter. Therefore the Millar pressure tip catheter was placed in the left ventricle and left ventricular pressure was recorded for off-line analysis.
Regional myocardial function: 24 hours after induction of ischemia, sternotomy was performed and ultrasonic crystals were placed subendocardial into the area at risk, the infracted area as well as into the Cx perfusion area in a standardized manner. Subendocardial segment shortening (SES) was assessed under resting heart rate as well as at 120 and 150 beats/min atrial pacing (for 1 min/each).
Infarct size and local inflammation: For assessment of infarct size methylene blue was injected in the left ventricle for negative staining of the AAR and tetrazolium red was applied into the LAD for viability staining in the infracted area. Thereafter, left ventricle was cut into slices (5 mm thick), and subjected to digital photography. Planimetry of different slices was conducted via ImageJ for assessment of infarct size in % of AAR. Tissue samples from infarct, area at risk and non-ischemic control were harvested for leukocyte recruitment. Myeloperoxidase assays were performed as previously described (Kupatt et al., 2005).

cardiomyocytes = test: TUNEL assay on hearts after coronary ligation; assay type: in vivo, mouse; conditions: 24 h after ligation
From the text: (§1) Animals and Surgical procedures. Mice: Myocardial infarctions were produced in seventy C57BL/6J male mice at 16 weeks of age (25-30 g) by ligation of the left anterior descending (LAD) coronary artery as described (Garner et al., 2003). All animal protocols were reviewed and approved by the University of Texas Southwestern Medical School Institutional Animal Care Advisory Committee and were in compliance with the rules governing animal use as published by the NIH. Mice were sedated in an isoflurane chamber (5%) for 60 seconds until self-designed coaxial mask could be safely applied. The mask supplied continuous isoflurane (2.0%) and oxygen (98.0%) under positive pressure from a Harvard small animal respirator throughout the procedures. […] Effective doses of the peptides were calculated based on optimal in vitro cell migration effect and on biodistribution calculations of full length TB4 (Mora et al., 1997). […]
Immunohistochemistry. Adult mouse cardiac tissue was fixed in 4% paraformaldehyde and sections were analyzed by immunohistochemistry. […] Number of sm a-actin positive capillaries and Wt-1 positive cells were counted at the infarction border zone in high power photographs at all levels of the sections in three peptide, TB4 and PBS treated hearts respectively.

Akt = test: Western blot anti-phosphoS473-Akt on heart lysates after coronary ligation; assay type: in vivo, mouse; conditions: 24 hours after treatment
From the text: as §1
Western blot. […] The protein fraction was isolated from the interphase of the Trizol purification as recommended by the manufacturer; 10 μg of the total protein was loaded and analyzed by Western blot with protein-specific primary antibodies: VEGF, p-Marcks, p-Akt, and GAPDH (1:100) (Santa Cruz), Connexin43 (1:50) (Invitrogen), N-Cadherin (1:5000) (BD Biosciences) and pS368-Connexin43 (1:1000) (Cell Signaling Technology).

mature coronary vessels = test: Immunohistochemistry, smooth muscle α-actin positive vessels at infarction border zone; assay type: in vivo, mouse
From the text: Animals and Surgical procedures. Mice: Myocardial infarctions were produced in seventy C57BL/6J male mice at 16 weeks of age (25-30 g) by ligation of the left anterior descending (LAD) coronary artery as described (Garner et al., 2003). All animal protocols were reviewed and approved by the University of Texas Southwestern Medical School Institutional Animal Care Advisory Committee and were in compliance with the rules governing animal use as published by the NIH. Mice were sedated in an isoflurane chamber (5%) for 60 seconds until self-designed coaxial mask could be safely applied. The mask supplied continuous isoflurane (2.0%) and oxygen (98.0%) under positive pressure from a Harvard small animal respirator throughout the procedures. Immediately after ligation mice were injected with 200 ng of peptide in […] or […] PBS in collagen intracardially in the infarction border, and with […] PBS intraperitoneally as described (Bock-Marquette et al., 2004). Intraperitoneal injections were repeated every three days after ligation. Effective doses of the peptides were calculated based on optimal in vitro cell migration effect and on biodistribution calculations of full length TB4 (Mora et al., 1997). The inventors administered buprenorphine (0.05 mg/kg) for post-operative pain control. Hearts were removed 1, 14 and 21 days after ligation and processed for further investigations.
Immunohistochemistry. Adult mouse cardiac tissue was fixed in 4% paraformaldehyde and sections were analyzed by immunohistochemistry. Hearts were sectioned at eight levels from the base to the apex. Serial sections were immunostained with primary antibodies against Pecam-1 and Wt-1 (1:50) (Santa Cruz), Smooth muscle a-actin (1:220) (Sigma), Sarcomeric a-actinin (1:200) (Sigma), Connexin43 (1:200) (Invitrogen), pS368-Connexin43 (1:200) (Cell Signaling Technology) as recommended by the manufacturer. Terminal deoxynucleotidyl transferase dUTP nick end labeling (TUNEL) assay was performed using In Situ Cell Detection kit (Roche). Number of sm a-actin positive capillaries and Wt-1 positive cells were counted at the infarction border zone in high power photographs at all levels of the sections in three peptide, TB4 and PBS treated hearts respectively.

full thickness wound = conditions: cited from earlier work; for increase of epithelial layer restoration in the wound: topical or injected, compared to untreated
keratinocytes = conditions: within four to five hours after treatment, compared to untreated keratinocytes; cited from earlier work

**Q.** What does the source list for Thymosin β4 [TB4]?
**A.** left ventricular end-diastolic pressure (adult infarcted pigs; after ischemia and 24 h reperfusion): 10.4+/−0.8 mmHg; regional myocardial function in the infarcted area (adult infarcted pigs; at rest and under increased heart rate (atrial pacing)): significantly improved; infarct size (adult infarcted pigs; in % of AAR, 60 min occlusion, retroinfusion at onset of reperfusion, n=5): 35+/−3%; post-ischemic inflammatory leukocyte influx (myeloperoxidase activity) (adult infarcted pigs; ischemic heart tissue after retroinfusion): reduced post-ischemic inflammatory leukocyte influx; TUNEL positive cardiomyocytes (myocardial cell death) (cardiomyocytes): significant decrease of myocardial cell death; Akt activation (phosphoS473-Akt) (Akt): increased Akt activation; number of mature, smooth muscle α-actin positive vessels (mature coronary vessels; 21 days / three weeks, compared to PBS): increase the number of mature, smooth muscle a-actin positive vessels; number of mature coronary vessels (mature coronary vessels; two weeks after treatment, compared to PBS (FIG. 10)): increases; increase of epithelial layer restoration in the wound (full thickness wound; by day four): 42%; increase of epithelial layer restoration in the wound (full thickness wound; by day seven): 61%; wound contraction (full thickness wound; compared to untreated wounds): more than 11%; collagen deposition in the wound and angiogenesis (full thickness wound; rat, in vivo): stimulated collagen deposition; increase of keratinocyte migration (keratinocytes): two to threefold
